Several values for one entry are separate records, joined by “and”; a condition that tells them apart may be missing. Equal values may be shown once. Toxic doses and inconclusive results are not listed.

This assay relates to BDF1 mice, P388 leukemia ip, median survival T/C. Put plainly: NCI In Vivo Anticancer Drug Screen. Data for tumor model P388 Leukemia (intraperitoneal) in B6D2F1 (BDF1) mice. The conditions noted are these: endpoint: median survival time, higher = longer survival. The method in brief:
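Mice carrying the transplantable tumour receive compound or vehicle. Survival is followed in each arm, and the treated measure is divided by the vehicle measure.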

Setting [1] is: dose: 100.0 mg/kg/injection, schedule: Q01DX009 (ip), vehicle: Klucel (hydroxypropylcellulose) (HPC).
Setting [2] is: dose: 100.0 mg/kg/injection, schedule: Q04DX003 (ip), vehicle: Klucel (hydroxypropylcellulose) (HPC).
[3] abbreviates: dose: 200.0 mg/kg/injection, schedule: Q01DX009 (ip), vehicle: Klucel (hydroxypropylcellulose) (HPC).
Setting [4] is: dose: 400.0 mg/kg/injection, schedule: Q01DX009 (ip), vehicle: Klucel (hydroxypropylcellulose) (HPC).
The mark [5] stands for this setting: dose: 400.0 mg/kg/injection, schedule: Q04DX003 (ip), vehicle: Klucel (hydroxypropylcellulose) (HPC).
Where [6] appears, read: dose: 100.0 mg/kg/injection, schedule: Q04DX003 (ip), vehicle: saline with Tween-80.
The mark [7] stands for this setting: dose: 200.0 mg/kg/injection, schedule: Q04DX003 (ip), vehicle: saline with Tween-80.
[8] abbreviates: dose: 400.0 mg/kg/injection, schedule: Q04DX003 (ip), vehicle: saline with Tween-80.
The mark [9] stands for this setting: dose: 25.0 mg/kg/injection, schedule: Q01DX009 (ip), vehicle: Klucel (hydroxypropylcellulose) (HPC).
The mark [10] stands for this setting: dose: 25.0 mg/kg/injection, schedule: Q01DX009 (ip), vehicle: saline with Tween-80.
[11] abbreviates: dose: 50.0 mg/kg/injection, schedule: Q01DX009 (ip), vehicle: saline with Tween-80.
Where [12] appears, read: dose: 100.0 mg/kg/injection, schedule: Q01DX009 (ip), vehicle: saline with Tween-80.
Setting [13] is: dose: 200.0 mg/kg/injection, schedule: Q01DX009 (ip), vehicle: saline with Tween-80.

In the case of `NCCNCC[OH2+].NCCNCC[OH2+].[Cu+2].[O-][Cl+3]([O-])([O-])[O-]`, the T/C is, setting by setting: (dose: 12.5 mg/kg/injection, schedule: Q01DX009 (ip), vehicle: saline) 100 % of control; (dose: 25.0 mg/kg/injection, schedule: Q01DX009 (ip), vehicle: saline) 105 % of control.
Regarding `CC1CCC(NC2=NCCO2)C(C)C1` (stereo unspecified), the T/C was 95 % of control (dose: 12.5 mg/kg/injection, schedule: Q04DX003 (ip), vehicle: saline with Tween-80); 100 % of control (dose: 25.0 mg/kg/injection, schedule: Q04DX003 (ip), vehicle: saline with Tween-80); 100 % of control (dose: 50.0 mg/kg/injection, schedule: Q04DX003 (ip), vehicle: saline with Tween-80).
Regarding `CNC(=S)NNc1ccccc1`, the T/C runs as follows: (dose: 50.0 mg/kg/injection, schedule: Q01DX009 (ip), vehicle: Klucel (hydroxypropylcellulose) (HPC)) 96 % of control; under setting [1], 91 % of control; under setting [2], 90 % of control; under setting [3], 95 % of control; (dose: 200.0 mg/kg/injection, schedule: Q04DX003 (ip), vehicle: Klucel (hydroxypropylcellulose) (HPC)) 95 % of control; under setting [4], 95 % of control. The T/C under setting [5] was 100 % of control.
Consider `CC1=CC=CC(=O)C1(C)C(Cl)Cl` (stereo unspecified), for which the T/C under setting [6] was 110 % of control, the T/C under setting [7] was 115 % of control and the T/C under setting [8] is 120 % of control.
As to `CC(C)CCNc1ncnc2[nH]ncc12`, the T/C (dose: 5.5 mg/kg/injection, schedule: Q01DX009 (ip), vehicle: Klucel (hydroxypropylcellulose) (HPC)) is 95 % of control; the T/C (dose: 8.2 mg/kg/injection, schedule: Q01DX009 (ip), vehicle: Klucel (hydroxypropylcellulose) (HPC)) is 100 % of control; the T/C (dose: 18.75 mg/kg/injection, schedule: Q04DX003 (ip), vehicle: Klucel (hydroxypropylcellulose) (HPC)) is 86 % of control; the T/C under setting [9] was 90 % of control; the T/C under setting [10] was 90 % of control; the T/C (dose: 37.5 mg/kg/injection, schedule: Q04DX003 (ip), vehicle: Klucel (hydroxypropylcellulose) (HPC)) is 104 % of control. The T/C under setting [11] was 90 % of control and the T/C (dose: 75.0 mg/kg/injection, schedule: Q04DX003 (ip), vehicle: Klucel (hydroxypropylcellulose) (HPC)) was 86 % of control.
`CC(C)(C)C[CH2][Hg][Cl]`: the T/C (dose: 3.13 mg/kg/injection, schedule: Q04DX003 (ip), vehicle: saline) is 105 % of control; the T/C (dose: 6.25 mg/kg/injection, schedule: Q04DX003 (ip), vehicle: saline) was 100 % of control; the T/C (dose: 8.25 mg/kg/injection, schedule: Q04DX003 (ip), vehicle: saline sonified) was 109 % of control; the T/C (dose: 12.5 mg/kg/injection, schedule: Q04DX003 (ip), vehicle: saline sonified) is 113 % of control; the T/C (dose: 18.75 mg/kg/injection, schedule: Q04DX003 (ip), vehicle: saline sonified) is 100 % of control.
As to `COc1cc2c(cc1OC)C1CNC(=O)C1C(c1ccccc1)C2` (stereo unspecified), the T/C runs as follows: (dose: 50.0 mg/kg/injection, schedule: Q01DX001 (ip), vehicle: Klucel (hydroxypropylcellulose) (HPC)) 100 % of control; (dose: 100.0 mg/kg/injection, schedule: Q01DX001 (ip), vehicle: Klucel (hydroxypropylcellulose) (HPC)) 95 % of control; (dose: 200.0 mg/kg/injection, schedule: Q01DX001 (ip), vehicle: Klucel (hydroxypropylcellulose) (HPC)) 100 % of control; (dose: 400.0 mg/kg/injection, schedule: Q01DX001 (ip), vehicle: Klucel (hydroxypropylcellulose) (HPC)) 96 % of control.
In the case of `CCN(CC)c1ccc(/C=C/c2ccnc3ccccc23)cc1`, the T/C reads like this: (dose: 1.56 mg/kg/injection, schedule: Q01DX009 (ip), vehicle: saline with Tween-80) 95 % of control; (dose: 3.13 mg/kg/injection, schedule: Q01DX009 (ip), vehicle: saline with Tween-80) 105 % of control; (dose: 6.25 mg/kg/injection, schedule: Q01DX009 (ip), vehicle: saline with Tween-80) 90 % of control.
For the compound `[F][Fe]([F])([F])([F])([F])[F]`, the T/C is, setting by setting: under setting [11], 95 % of control; under setting [12], 101 % of control.
Turning to `CCOC(=O)C(=O)Cc1sccc1[N+](=O)[O-]`, the T/C reads like this: under setting [1], 105 % of control; under setting [2], 86 % of control; under setting [3], 100 % of control; under setting [4], 105 % of control; under setting [5], 91 % of control.
Take `CC1(C)CC2(C)OC2C2(C1)N=NC(=O)O2` (stereo unspecified): the T/C by setting is: under setting [11], 98 % of control; under setting [12], 107 % of control; under setting [13], 121 % of control.
Regarding `CC1CCN(SSc2nc3ccccc3s2)CC1`, the T/C by setting is: under setting [11], 110 % of control; under setting [12], 110 % of control.
As to `CCCCN(c1ccccc1)c1ncnc2c1cnn2C`, the T/C is 92 % of control and 100 % of control under setting [12]; 100 % of control and 108 % of control under setting [6]; 107 % of control under setting [13]; 91 % of control and 100 % of control under setting [7]; 96 % of control and 100 % of control (dose: 400.0 mg/kg/injection, schedule: Q01DX009 (ip), vehicle: saline with Tween-80); 95 % of control and 100 % of control under setting [8].
Turning to `CC(C)(C)CC(=O)OCCC[N+](C)(C)C`, the T/C (dose: 6.25 mg/kg/injection, schedule: Q01DX009 (ip), vehicle: water) was 103 % of control; the T/C (dose: 12.5 mg/kg/injection, schedule: Q01DX009 (ip), vehicle: water) is 119 % of control; the T/C (dose: 25.0 mg/kg/injection, schedule: Q01DX009 (ip), vehicle: water) was 99 % of control; the T/C (dose: 50.0 mg/kg/injection, schedule: Q01DX009 (ip), vehicle: water) is 91 % of control.
For the compound `O=C(NS(=O)(=O)c1ccc(Cl)cc1)c1ccccc1`, the T/C runs as follows: (dose: 12.5 mg/kg/injection, schedule: Q01DX009 (ip), vehicle: saline with Tween-80) 99 % of control; under setting [10], 100 % of control and 109 % of control; under setting [11], 103 % of control and 120 % of control; under setting [12], 100 % of control; under setting [13], 90 % of control.
With `O=NN(CCCl)C(=O)Nc1ccc2[nH]c3ccccc3c2c1`, the T/C reads like this: (dose: 30.0 mg/kg/injection, schedule: Q01DX009 (ip), vehicle: Klucel (hydroxypropylcellulose) (HPC)) 183 % of control; (dose: 45.0 mg/kg/injection, schedule: Q01DX009 (ip), vehicle: Klucel (hydroxypropylcellulose) (HPC)) 175 % of control; (dose: 65.0 mg/kg/injection, schedule: Q01DX009 (ip), vehicle: Klucel (hydroxypropylcellulose) (HPC)) 183 % of control and 192 % of control; (dose: 130.0 mg/kg/injection, schedule: Q01DX009 (ip), vehicle: Klucel (hydroxypropylcellulose) (HPC)) 208 % of control.
`O=C(O)c1ccccc1O.O=C(O)c1ccccc1O.[O]=[V]`: the T/C runs as follows: (dose: 8.0 mg/kg/injection, schedule: Q01DX010 (ip), vehicle: carboxymethylcellulose (CMC)) 90 % of control; (dose: 16.0 mg/kg/injection, schedule: Q01DX010 (ip), vehicle: carboxymethylcellulose (CMC)) 100 % of control.
With `CCOC(=O)/C(O)=C(\C=N\C(N)=O)C(=O)OCC`, the T/C is, setting by setting: (dose: 50.0 mg/kg/injection, schedule: Q04DX003 (ip), vehicle: saline sonified) 100 % of control; (dose: 100.0 mg/kg/injection, schedule: Q04DX003 (ip), vehicle: saline sonified) 105 % of control; (dose: 200.0 mg/kg/injection, schedule: Q04DX003 (ip), vehicle: saline sonified) 110 % of control.
`CC1(C)CC(=O)C2=C(C1)OC1=C(C(=O)CC(C)(C)C1)C2c1cccc([N+](=O)[O-])c1`: the T/C runs as follows: under setting [11], 104 % of control; under setting [12], 123 % of control; under setting [13], 106 % of control.
Regarding `CN(C)N=Nc1ccccc1[N+](=O)[O-]`, the T/C under setting [9] is 107 % of control and the T/C under setting [1] was 92 % of control.
